According to ChEMBL document CHEMBL1134231, “Peptidomimetic inhibitors of protein farnesyltransferase show potent antimalarial activity” (Bioorg Med Chem Lett, 2001):
≈ marks a conversion by molar mass, not a printed value.

These compounds were tested on Plasmodium falciparum (assay: Growth inhibition of Plasmodium falciparum 3D7 infected red blood cells). Details: read-out: ED50 (the source's name).
Format: functional

SMILES | EC50 [µg/mL]
CSCC[C@H](NC(=O)c1ccc(NCc2cn(Cc3ccc(-c4ccccc4)cc3)cn2)cc1-c1ccccc1)C(=O)O | 12 (≈ 20.3 µM)
CC(C)NC(=O)c1ccc(NCc2cncn2Cc2ccc(C#N)cc2)cc1-c1ccccc1 | 3 (≈ 6.67 µM)
N#Cc1ccc(Cn2cncc2CNc2ccc(C(=O)NCC3CCCCC3)c(-c3ccccc3)c2)cc1 | 3 (≈ 5.96 µM)
N#CCCNC(=O)c1ccc(NCc2cncn2Cc2ccc(C#N)cc2)cc1-c1ccccc1 | 10 (≈ 21.7 µM)
CSCC[C@H](NC(=O)c1ccc(NCc2cncn2Cc2ccc(-c3ccccc3)cc2)cc1-c1ccccc1)C(=O)O | 5 (≈ 8.46 µM)
CSCC[C@H](NC(=O)c1ccc(NCc2cn(Cc3cccc4ccccc34)cn2)cc1-c1ccccc1)C(=O)O | 10 (≈ 17.7 µM)
COC(=O)[C@H](CCSC)NC(=O)c1ccc(CNCc2c[nH]cn2)cc1-c1ccccc1C | 2 (≈ 4.29 µM)
CSCC[C@H](NC(=O)c1ccc(NCc2cncn2Cc2ccc(C#N)cc2)cc1-c1ccccc1)C(=O)O | 13 (≈ 24.1 µM)
CSCC[C@H](NC(=O)c1ccc(NCc2cn(CC3CCCCC3)cn2)cc1-c1ccccc1)C(=O)O | > 30
CSCC[C@H](NC(=O)c1ccc(CNCc2c[nH]cn2)cc1-c1ccccc1C)C(=O)O | > 30
N#Cc1ccc(Cn2cncc2CNc2ccc(C(=O)NCc3ccccc3)c(-c3ccccc3)c2)cc1 | 4 (≈ 8.04 µM)
CSCC[C@H](NC(=O)c1ccc(NCc2cncn2CC2CCCCC2)cc1-c1ccccc1)C(=O)O | 10 (≈ 19.2 µM)

These compounds were tested against Protein farnesyltransferase (Mus musculus, UniProt Q61239+Q8K2I1) (assay: Inhibition of mammalian H-Ras processing in NIH 3T3 cells). Details: not given.
Format: functional, cell-based, NIH3T3

SMILES | IC50 [nM]
CSCC[C@H](NC(=O)c1ccc(NCc2cn(Cc3ccc(-c4ccccc4)cc3)cn2)cc1-c1ccccc1)C(=O)O | > 100000
CC(C)NC(=O)c1ccc(NCc2cncn2Cc2ccc(C#N)cc2)cc1-c1ccccc1 | > 100000
N#Cc1ccc(Cn2cncc2CNc2ccc(C(=O)NCC3CCCCC3)c(-c3ccccc3)c2)cc1 | > 100000
CSCC[C@H](NC(=O)c1ccc(NCc2cn(Cc3cccc4ccccc34)cn2)cc1-c1ccccc1)C(=O)O | > 100000
COC(=O)[C@H](CCSC)NC(=O)c1ccc(CNCc2c[nH]cn2)cc1-c1ccccc1C | 20

Other lines, results leading:

IC50 [nM] | SMILES
> 100000 | CSCC[C@H](NC(=O)c1ccc(NCc2cncn2Cc2ccc(-c3ccccc3)cc2)cc1-c1ccccc1)C(=O)O
5000 | CSCC[C@H](NC(=O)c1ccc(NCc2cncn2Cc2ccc(C#N)cc2)cc1-c1ccccc1)C(=O)O
200 | CSCC[C@H](NC(=O)c1ccc(CNCc2c[nH]cn2)cc1-c1ccccc1C)C(=O)O

What follows are compounds tested on Plasmodium falciparum (assay: Percent growth inhibition of Plasmodium falciparum 3D7 in erythrocytes at 20 uM). Details: not given.
Format: functional

SMILES | inhibition at 20 µM [%]
CSCC[C@H](NC(=O)c1ccc(NCc2cncn2Cc2ccc(-c3ccccc3)cc2)cc1-c1ccccc1)C(=O)O | 89.1
CSCC[C@H](NC(=O)c1ccc(NCc2cn(Cc3cccc4ccccc34)cn2)cc1-c1ccccc1)C(=O)O | 19.4
COC(=O)[C@H](CCSC)NC(=O)c1ccc(CNCc2c[nH]cn2)cc1-c1ccccc1C | 99
CSCC[C@H](NC(=O)c1ccc(NCc2cncn2Cc2ccc(C#N)cc2)cc1-c1ccccc1)C(=O)O | 86.3
CSCC[C@H](NC(=O)c1ccc(CNCc2c[nH]cn2)cc1-c1ccccc1C)C(=O)O | 0
CSCC[C@H](NC(=O)c1ccc(NCc2cncn2CC2CCCCC2)cc1-c1ccccc1)C(=O)O | 72

The compounds below were run against Protein farnesyltransferase (Homo sapiens, UniProt P49354+P49356) (assay: Inhibition of mammalian Farnesyltransferase). Details: not given.
Format: protein-complex assay

SMILES | IC50 [nM]
CSCC[C@H](NC(=O)c1ccc(NCc2cn(Cc3ccc(-c4ccccc4)cc3)cn2)cc1-c1ccccc1)C(=O)O | 6000
CC(C)NC(=O)c1ccc(NCc2cncn2Cc2ccc(C#N)cc2)cc1-c1ccccc1 | 380
N#Cc1ccc(Cn2cncc2CNc2ccc(C(=O)NCC3CCCCC3)c(-c3ccccc3)c2)cc1 | 3100
CSCC[C@H](NC(=O)c1ccc(NCc2cn(Cc3cccc4ccccc34)cn2)cc1-c1ccccc1)C(=O)O | 3000
COC(=O)[C@H](CCSC)NC(=O)c1ccc(CNCc2c[nH]cn2)cc1-c1ccccc1C | 34000
N#Cc1ccc(Cn2cncc2CNc2ccc(C(=O)NCc3ccccc3)c(-c3ccccc3)c2)cc1 | 640

Other lines, results leading:

IC50 [nM] | SMILES
220 | N#CCCNC(=O)c1ccc(NCc2cncn2Cc2ccc(C#N)cc2)cc1-c1ccccc1
260 | CSCC[C@H](NC(=O)c1ccc(NCc2cncn2Cc2ccc(-c3ccccc3)cc2)cc1-c1ccccc1)C(=O)O
7.2 | CSCC[C@H](NC(=O)c1ccc(NCc2cncn2Cc2ccc(C#N)cc2)cc1-c1ccccc1)C(=O)O
780 | CSCC[C@H](NC(=O)c1ccc(NCc2cn(CC3CCCCC3)cn2)cc1-c1ccccc1)C(=O)O
1 | CSCC[C@H](NC(=O)c1ccc(CNCc2c[nH]cn2)cc1-c1ccccc1C)C(=O)O
41 | CSCC[C@H](NC(=O)c1ccc(NCc2cncn2CC2CCCCC2)cc1-c1ccccc1)C(=O)O

The compounds below were run on Plasmodium falciparum (assay: Inhibition of Plasmodium falciparum 3D7 infected red blood cells). Details: read-out: ED50 (the source's name).
Format: functional

EC50 [µg/mL] | SMILES
> 30 | CSCC[C@H](NC(=O)c1ccc(NC[C@@H](N)CS)cc1-c1ccccc1)C(=O)O
